pEC50, pIC50: −log10 of the molar value. Calls of active or inactive are those of the source. No cut-off for these calls is given here.
Tests used:
Estrogen receptor beta [1] = target: T1, Estrogen receptor beta (Homo sapiens, UniProt Q92731); assay: Inhibition of fluorescein-tagged estrogen binding to GST-tagged ERbeta (unknown origin) ligand binding domain after 1 hr by LanthaScreen TR-FRET assay
Estrogen receptor [2] = target: T2, Estrogen receptor (Homo sapiens, UniProt P03372); assay: Agonist activity at full length ERalpha (unknown origin) after 24 hrs by ERE-driven luciferase reporter gene assay
T2 sequence (P03372 whole entry): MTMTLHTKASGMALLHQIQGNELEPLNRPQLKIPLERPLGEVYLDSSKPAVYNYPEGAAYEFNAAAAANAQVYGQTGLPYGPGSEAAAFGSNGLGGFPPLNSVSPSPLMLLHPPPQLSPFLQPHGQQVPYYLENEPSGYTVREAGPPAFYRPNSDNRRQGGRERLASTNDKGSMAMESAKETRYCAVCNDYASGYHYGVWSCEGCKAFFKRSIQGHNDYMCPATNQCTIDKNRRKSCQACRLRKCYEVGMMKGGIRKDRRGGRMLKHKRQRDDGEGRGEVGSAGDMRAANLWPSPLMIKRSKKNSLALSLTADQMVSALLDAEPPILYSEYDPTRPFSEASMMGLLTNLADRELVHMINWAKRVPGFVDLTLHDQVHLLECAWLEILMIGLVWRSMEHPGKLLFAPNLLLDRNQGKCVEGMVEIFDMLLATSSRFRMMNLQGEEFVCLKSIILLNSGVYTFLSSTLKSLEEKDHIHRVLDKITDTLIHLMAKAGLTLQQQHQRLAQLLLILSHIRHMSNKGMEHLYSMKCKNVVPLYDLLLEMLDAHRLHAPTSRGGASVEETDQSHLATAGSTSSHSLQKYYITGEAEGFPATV

Estrogen receptor beta [3] = target: T1, Estrogen receptor beta; assay: Agonist activity at full length ERbeta (unknown origin) after 24 hrs by cell based ERE-driven luciferase reporter gene assay
Estrogen receptor [4] = target: T2, Estrogen receptor; assay: Antagonist activity at full length ERalpha (unknown origin) assessed as reduction in E2 induced response after 24 hrs by cell based ERE-driven luciferase reporter gene assay
Estrogen receptor beta [5] = target: T1, Estrogen receptor beta
Description: Antagonist activity at full length ERbeta (unknown origin) assessed as reduction in E2 induced response after 24 hrs by cell based ERE-driven luciferase reporter gene assay

Estrogen receptor [6] = target: T2, Estrogen receptor; assay: Inhibition of fluorescein-tagged estrogen binding to GST-tagged ERalpha (unknown origin) ligand binding domain after 1 hr by LanthaScreen TR-FRET assay
[7] = target: 5-hydroxytryptamine receptor 1A (Homo sapiens) (UniProt P08908); assay: Displacement of [3H]-WAY100635 from human 5HT1A receptor expressed in stable CHO cells at 10 uM after 90 mins by microbeta scintillation counting method; type: cell-based
5-hydroxytryptamine receptor 1A (Homo sapiens), sequence (P08908 whole entry): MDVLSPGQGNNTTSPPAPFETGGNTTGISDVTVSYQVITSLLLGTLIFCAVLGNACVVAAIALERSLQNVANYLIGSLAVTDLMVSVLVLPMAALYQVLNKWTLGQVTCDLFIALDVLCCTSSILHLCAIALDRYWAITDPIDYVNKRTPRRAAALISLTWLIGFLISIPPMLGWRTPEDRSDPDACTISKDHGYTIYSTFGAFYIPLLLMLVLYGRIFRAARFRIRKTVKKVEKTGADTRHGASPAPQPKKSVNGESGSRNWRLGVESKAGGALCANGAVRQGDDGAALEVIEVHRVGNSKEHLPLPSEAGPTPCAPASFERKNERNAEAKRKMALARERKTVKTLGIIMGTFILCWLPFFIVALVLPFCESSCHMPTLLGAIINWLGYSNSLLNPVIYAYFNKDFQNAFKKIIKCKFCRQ

[8] = target: 5-hydroxytryptamine receptor 1D (Homo sapiens) (UniProt P28221); assay: Displacement of [3H]-5-CT from human 5-HT1D receptor expressed in HEKT cells at 10 uM after 90 mins by microbeta scintillation counting method; type: cell-based
[9] = target: 5-hydroxytryptamine receptor 2B (Homo sapiens) (UniProt P41595); assay: Displacement of [3H]-LSD from human 5-HT2B receptor expressed in stable HEK cells at 10 uM after 90 mins by microbeta scintillation counting method; type: cell-based
5-hydroxytryptamine receptor 2B (Homo sapiens), sequence (P41595 whole entry): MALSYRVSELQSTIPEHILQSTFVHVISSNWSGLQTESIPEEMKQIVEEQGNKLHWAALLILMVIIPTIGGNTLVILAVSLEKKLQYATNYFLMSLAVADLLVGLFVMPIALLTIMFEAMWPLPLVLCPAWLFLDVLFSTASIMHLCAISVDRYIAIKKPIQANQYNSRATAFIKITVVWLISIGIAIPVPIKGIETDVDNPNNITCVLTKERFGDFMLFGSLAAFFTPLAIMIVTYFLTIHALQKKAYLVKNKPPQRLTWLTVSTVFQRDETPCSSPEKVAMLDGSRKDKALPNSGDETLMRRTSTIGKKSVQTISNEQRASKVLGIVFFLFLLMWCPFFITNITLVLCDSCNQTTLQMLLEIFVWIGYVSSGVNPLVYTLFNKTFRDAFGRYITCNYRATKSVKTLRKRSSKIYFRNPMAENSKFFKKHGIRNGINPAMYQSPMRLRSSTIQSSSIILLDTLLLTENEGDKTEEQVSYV

[10] = target: 5-hydroxytryptamine receptor 6 (Homo sapiens) (UniProt P50406); assay: Displacement of [3H]-LSD from human 5-HT6 receptor expressed in stable HEK cells at 10 uM after 90 mins by microbeta scintillation counting method; type: cell-based
[11] = target: 5-hydroxytryptamine receptor 7 (Homo sapiens) (UniProt P34969); assay: Displacement of [3H]-LSD from human 5-HT7A receptor expressed in stable HEK cells at 10 uM after 90 mins by microbeta scintillation counting method; type: cell-based
[12] = target: Alpha-1A adrenergic receptor (Homo sapiens) (UniProt P35348); assay: Displacement of [3H]-Prazosin from human adrenergic alpha1A receptor at 10 uM after 90 mins by microbeta scintillation counting method
[13] = target: Alpha-1B adrenergic receptor (Homo sapiens) (UniProt P35368); assay: Displacement of [3H]-Prazosin from human adrenergic alpha1B receptor expressed in HEKT cells at 10 uM after 90 mins by microbeta scintillation counting method; type: cell-based
[14] = target: Beta-1 adrenergic receptor (Homo sapiens) (UniProt P08588); assay: Displacement of [3H]-Pindolol from human adrenergic beta1 receptor expressed in Flp-In CHO cells at 10 uM after 90 mins by microbeta scintillation counting method; type: cell-based
[15] = target: Beta-3 adrenergic receptor (Homo sapiens) (UniProt P13945); assay: Displacement of [3H]-CGP12177 from human adrenergic beta3 receptor expressed in Flp-In HEK cells at 10 uM after 90 mins by microbeta scintillation counting method; type: cell-based
[16] = target: Sigma non-opioid intracellular receptor 1 (Homo sapiens) (UniProt Q99720); assay: Displacement of [3H]-Pentazocine from human sigma1 receptor expressed in HEKT cells at 10 uM after 90 mins by microbeta scintillation counting method; type: cell-based
Sigma non-opioid intracellular receptor 1 (Homo sapiens), sequence (Q99720 whole entry): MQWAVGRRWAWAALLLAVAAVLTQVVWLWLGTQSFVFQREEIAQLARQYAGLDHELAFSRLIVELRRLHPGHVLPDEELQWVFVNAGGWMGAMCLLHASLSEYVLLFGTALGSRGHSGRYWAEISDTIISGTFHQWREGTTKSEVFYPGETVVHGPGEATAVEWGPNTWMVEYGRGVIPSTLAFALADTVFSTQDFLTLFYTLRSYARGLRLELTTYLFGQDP

[17] = target: Sigma intracellular receptor 2 (Homo sapiens) (UniProt Q5BJF2); assay: Displacement of [3H]-ditolylguanidine from human sigma2 receptor expressed in HEKT cells at 10 uM after 90 mins by microbeta scintillation counting method; type: cell-based
Sigma intracellular receptor 2 (Homo sapiens), sequence (Q5BJF2 whole entry): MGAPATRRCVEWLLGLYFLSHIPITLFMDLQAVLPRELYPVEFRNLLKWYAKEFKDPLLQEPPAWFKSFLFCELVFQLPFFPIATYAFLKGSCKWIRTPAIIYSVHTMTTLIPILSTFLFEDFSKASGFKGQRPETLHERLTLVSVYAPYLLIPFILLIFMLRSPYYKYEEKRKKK

[18] = target: Histamine H2 receptor (Homo sapiens) (UniProt P25021); assay: Displacement of [125I]-iodoaminopotentidine from human histamine H2 receptor expressed in HEK Flp-In cells at 10 uM after 90 mins by microbeta scintillation counting method; type: cell-based
Histamine H2 receptor (Homo sapiens), sequence (P25021 whole entry): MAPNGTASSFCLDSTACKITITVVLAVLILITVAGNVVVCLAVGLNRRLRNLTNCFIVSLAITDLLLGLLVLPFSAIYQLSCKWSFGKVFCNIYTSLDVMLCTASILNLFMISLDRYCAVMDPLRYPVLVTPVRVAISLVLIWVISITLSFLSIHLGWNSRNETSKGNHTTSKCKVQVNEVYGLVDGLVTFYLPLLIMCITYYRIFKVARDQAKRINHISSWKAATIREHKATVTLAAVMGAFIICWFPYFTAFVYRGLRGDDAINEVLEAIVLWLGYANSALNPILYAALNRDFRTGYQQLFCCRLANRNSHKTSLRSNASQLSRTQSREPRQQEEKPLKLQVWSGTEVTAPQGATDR

[19] = target: Histamine H2 receptor (Homo sapiens) (UniProt P25021); assay: Displacement of [3H]-histamine from human histamine H2 receptor expressed in HEKT cells at 10 uM after 90 mins by microbeta scintillation counting method; type: cell-based
hERG (KCNH2) = hERG (KCNH2) (Homo sapiens, UniProt Q12809); assay: Displacement of [3H]-dofetilide from human ERG expressed in HEK cells at 10 uM after 90 mins by microbeta scintillation counting method; type: cell-based; conditions: HEK cells expressing human ERG, probe [3H]-dofetilide
hERG (KCNH2), sequence (Q12809 whole entry): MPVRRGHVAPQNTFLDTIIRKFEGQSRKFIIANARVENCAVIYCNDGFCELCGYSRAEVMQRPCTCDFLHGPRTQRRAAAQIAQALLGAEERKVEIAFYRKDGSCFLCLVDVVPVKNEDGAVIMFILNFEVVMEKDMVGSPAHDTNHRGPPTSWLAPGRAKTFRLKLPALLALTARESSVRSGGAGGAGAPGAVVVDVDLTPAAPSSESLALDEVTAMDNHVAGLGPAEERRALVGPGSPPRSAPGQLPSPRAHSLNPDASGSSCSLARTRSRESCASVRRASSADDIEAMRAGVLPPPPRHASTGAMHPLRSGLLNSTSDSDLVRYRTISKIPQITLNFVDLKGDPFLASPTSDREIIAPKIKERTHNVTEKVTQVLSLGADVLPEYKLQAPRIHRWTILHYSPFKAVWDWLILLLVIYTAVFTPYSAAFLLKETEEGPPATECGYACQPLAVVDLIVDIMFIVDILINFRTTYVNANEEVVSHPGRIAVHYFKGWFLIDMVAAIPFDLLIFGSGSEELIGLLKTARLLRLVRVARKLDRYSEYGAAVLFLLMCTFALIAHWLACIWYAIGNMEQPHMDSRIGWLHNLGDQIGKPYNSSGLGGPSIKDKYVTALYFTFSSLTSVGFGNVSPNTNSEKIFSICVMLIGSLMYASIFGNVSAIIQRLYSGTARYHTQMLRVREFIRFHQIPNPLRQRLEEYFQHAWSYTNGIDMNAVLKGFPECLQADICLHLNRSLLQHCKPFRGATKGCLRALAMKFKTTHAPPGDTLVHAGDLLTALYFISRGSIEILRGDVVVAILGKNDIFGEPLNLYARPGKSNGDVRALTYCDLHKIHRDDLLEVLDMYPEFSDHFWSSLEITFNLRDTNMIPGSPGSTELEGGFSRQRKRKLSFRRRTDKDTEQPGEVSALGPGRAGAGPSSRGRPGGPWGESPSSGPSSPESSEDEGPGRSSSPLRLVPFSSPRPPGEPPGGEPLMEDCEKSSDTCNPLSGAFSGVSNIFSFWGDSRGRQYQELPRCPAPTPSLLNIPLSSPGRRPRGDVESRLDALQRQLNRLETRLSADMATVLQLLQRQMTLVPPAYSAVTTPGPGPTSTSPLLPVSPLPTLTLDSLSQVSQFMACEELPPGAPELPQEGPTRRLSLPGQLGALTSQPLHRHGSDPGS

Cytochrome P450 2D6 = Cytochrome P450 2D6 (Homo sapiens, UniProt P10635); assay: Inhibition of CYP2D6 (unknown origin) using luciferin-ME EGE as substrate preincubated for 10 mins followed by NADPH regeneration system addition and measured after 30 to 45 mins by Promega P450-GloScreening assay; type: ADME
Cytochrome P450 2D6, sequence (P10635 whole entry): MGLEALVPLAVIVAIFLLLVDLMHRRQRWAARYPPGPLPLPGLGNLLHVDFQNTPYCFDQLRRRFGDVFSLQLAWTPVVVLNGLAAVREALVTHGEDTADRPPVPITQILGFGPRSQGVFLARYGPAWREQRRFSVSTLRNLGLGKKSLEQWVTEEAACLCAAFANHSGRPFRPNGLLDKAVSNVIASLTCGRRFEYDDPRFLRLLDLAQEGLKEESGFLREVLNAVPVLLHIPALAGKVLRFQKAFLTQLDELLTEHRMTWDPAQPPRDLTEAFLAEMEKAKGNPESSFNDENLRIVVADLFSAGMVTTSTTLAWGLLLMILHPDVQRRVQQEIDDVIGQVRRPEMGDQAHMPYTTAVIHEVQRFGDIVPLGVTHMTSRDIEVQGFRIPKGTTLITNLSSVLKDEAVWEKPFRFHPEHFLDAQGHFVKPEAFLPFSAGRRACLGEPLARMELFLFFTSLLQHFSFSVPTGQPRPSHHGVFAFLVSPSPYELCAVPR

Cytochrome P450 3A4 = Cytochrome P450 3A4 (Homo sapiens, UniProt P08684); assay: Inhibition of CYP3A4 (unknown origin) using luciferin-IPA as substrate preincubated for 10 mins followed by NADPH regeneration system addition and measured after 10 to 30 mins by Promega P450-GloScreening assay; type: ADME
Cytochrome P450 2C9 = Cytochrome P450 2C9 (Homo sapiens, UniProt P11712); assay: Inhibition of CYP2C9 (unknown origin) using luciferin-H as substrate preincubated for 10 mins followed by NADPH regeneration system addition and measured after 30 mins by Promega P450-GloScreening assay; type: ADME
Cytochrome P450 2C9, sequence (P11712 whole entry): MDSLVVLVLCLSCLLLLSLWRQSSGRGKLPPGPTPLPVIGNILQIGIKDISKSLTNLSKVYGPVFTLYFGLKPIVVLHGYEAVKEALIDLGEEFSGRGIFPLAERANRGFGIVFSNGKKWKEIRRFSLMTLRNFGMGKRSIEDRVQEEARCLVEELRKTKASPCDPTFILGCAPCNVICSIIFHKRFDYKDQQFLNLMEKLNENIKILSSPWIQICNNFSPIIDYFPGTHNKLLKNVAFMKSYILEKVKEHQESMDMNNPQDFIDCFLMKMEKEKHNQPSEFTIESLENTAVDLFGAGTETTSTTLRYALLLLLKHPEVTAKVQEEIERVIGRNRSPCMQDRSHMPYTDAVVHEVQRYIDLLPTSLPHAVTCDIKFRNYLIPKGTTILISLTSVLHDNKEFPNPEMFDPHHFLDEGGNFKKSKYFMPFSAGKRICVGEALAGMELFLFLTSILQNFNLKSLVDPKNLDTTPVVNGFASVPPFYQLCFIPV

Cytochrome P450 1A2 = Cytochrome P450 1A2 (Homo sapiens, UniProt P05177); assay: Inhibition of CYP1A2 (unknown origin) using luciferin-ME as substrate preincubated for 10 mins followed by NADPH regeneration system addition and measured after 10 to 30 mins by Promega P450-GloScreening assay; type: ADME
Cytochrome P450 1A2, sequence (P05177 whole entry): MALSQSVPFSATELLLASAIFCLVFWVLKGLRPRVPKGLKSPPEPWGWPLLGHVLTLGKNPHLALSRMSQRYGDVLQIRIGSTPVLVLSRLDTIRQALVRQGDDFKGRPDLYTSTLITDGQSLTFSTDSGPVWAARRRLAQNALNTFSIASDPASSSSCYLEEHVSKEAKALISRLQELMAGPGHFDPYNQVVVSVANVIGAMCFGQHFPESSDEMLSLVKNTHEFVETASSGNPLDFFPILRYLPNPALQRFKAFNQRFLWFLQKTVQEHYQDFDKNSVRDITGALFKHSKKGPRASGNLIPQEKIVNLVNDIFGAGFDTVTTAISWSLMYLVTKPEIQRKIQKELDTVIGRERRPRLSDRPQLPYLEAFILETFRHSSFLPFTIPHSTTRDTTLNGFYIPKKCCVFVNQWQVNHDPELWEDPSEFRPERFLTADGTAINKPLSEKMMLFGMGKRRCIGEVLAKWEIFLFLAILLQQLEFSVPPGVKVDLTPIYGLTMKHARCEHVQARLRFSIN

[20] = Solubility of the compound in buffer containing 20 mM potassium phosphate of pH 7.5 and 1% DMSO up to 250 uM by nephelometry; type: physicochemical
MCF7 = assay: Antiproliferative activity against human MCF7 cells at 0.01 to 10 uM after 24 hrs by MTT assay; type: functional, cell-based
Progesterone receptor = Progesterone receptor (Homo sapiens, UniProt P06401); assay: Agonist activity at GAL4 DNA-binding domain fused PR (unknown origin) ligand binding domain expressed in UAS-bla HEK 293T cells assessed as beta-lactamase transcriptional activation by FRET-based GeneBLAzer assay; type: cell-based

T1 sequence (Q92731 whole entry, the tested form may be a part): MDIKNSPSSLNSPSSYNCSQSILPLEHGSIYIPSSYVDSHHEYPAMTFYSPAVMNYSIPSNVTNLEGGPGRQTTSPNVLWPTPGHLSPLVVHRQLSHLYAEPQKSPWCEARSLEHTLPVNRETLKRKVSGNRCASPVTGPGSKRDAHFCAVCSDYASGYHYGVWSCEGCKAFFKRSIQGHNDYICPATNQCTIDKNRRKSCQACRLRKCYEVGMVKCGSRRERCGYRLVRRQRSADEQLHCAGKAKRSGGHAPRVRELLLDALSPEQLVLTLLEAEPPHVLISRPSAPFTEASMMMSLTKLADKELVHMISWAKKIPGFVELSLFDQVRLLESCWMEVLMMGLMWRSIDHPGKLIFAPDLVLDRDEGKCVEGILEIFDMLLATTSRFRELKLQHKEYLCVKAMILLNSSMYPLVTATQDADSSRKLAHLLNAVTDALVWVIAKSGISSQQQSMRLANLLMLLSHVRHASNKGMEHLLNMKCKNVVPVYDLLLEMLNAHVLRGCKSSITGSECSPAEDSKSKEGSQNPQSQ

Row | Structure (SMILES) | pEC50 (Estrogen receptor beta [1]) | pEC50 (Estrogen receptor [2]) | pEC50 (Estrogen receptor beta [3]) | pEC50 (Estrogen receptor [4]) | pEC50 (Estrogen receptor beta [5]) | pEC50 (Estrogen receptor [6]) | other results
1 | OCCC1CCCC(c2ccc(O)cc2)CC1 (racemic) | 7.12 | < 5.00 | 6.86 | < 5.00 | < 5.00 | – | –
2 | OCC1CCCC(c2ccc(O)cc2)CC1 (racemic) | 7.28 | 4.98 | 7.48 | < 5.00 | < 4.00 | 7.00 | inhibition [7]: 14.6%; inhibition [8]: 25.3%; inhibition [9]: -7.3%; inhibition [10]: 19%; inhibition [11]: -8.5%; inhibition [12]: -3.7%; inhibition [13]: -4.9%; inhibition [14]: -4.8%; inhibition [15]: 16%; inhibition [16]: 17.1%; inhibition [17]: 31.9%; inhibition [18]: 2.7%; inhibition [19]: -0.1%; inhibition at 1.5 h, 10 µM (hERG (KCNH2)): -1.7%; pIC50 (Cytochrome P450 2D6): 4.14; pIC50 (Cytochrome P450 3A4): 4.48; pIC50 (Cytochrome P450 2C9): 5.57; pIC50 (Cytochrome P450 1A2): 3.89; solubility [20]: Soluble; Activity (MCF7): Active
3 | OC[C@@H]1CCC[C@@H](c2ccc(O)cc2)CC1 (stereo in doubt) | 7.55 | < 5.00 | 7.32 | < 5.00 | < 4.63 | 7.21 | –
4 | OC[C@H]1CCC[C@H](c2ccc(O)cc2)CC1 (stereo in doubt) | 7.74 | < 5.52 | 7.30 | < 4.45 | < 4.45 | 7.02 | –
5 | CCC(=O)[C@@]1(C)CC[C@H]2[C@@H]3CCC4=CC(=O)CCC4=C3CC[C@@]21C [PROMEGESTONE] | – | – | – | – | – | – | pIC50 (Progesterone receptor): 9.63

Continued, in another order:

Row | pEC50 (Estrogen receptor beta [1]) | pEC50 (Estrogen receptor [2]) | pEC50 (Estrogen receptor beta [3]) | pEC50 (Estrogen receptor [4]) | pEC50 (Estrogen receptor beta [5]) | pEC50 (Estrogen receptor [6]) | Structure (SMILES) | other results
6 | 6.29 | – | – | – | – | – | Oc1ccc(C23CCCC(CC2)CO3)cc1 (racemic) | –
7 | 6.22 | < 5.00 | < 6.10 | < 5.00 | < 5.00 | – | O/N=C1\CCCC(c2ccc(O)cc2)CC1 (racemic) | –
8 | 6.36 | – | – | – | – | – | O=C1CCCC(c2ccc(O)cc2)CC1 (racemic) | –

From ChEMBL document CHEMBL4261581, “Synthesis and evaluation of 4-cycloheptylphenols as selective Estrogen receptor-β agonists (SERBAs)” (Eur J Med Chem, 2018)
